# Assay results published in US20260198497A1, “A BENZENE RING-SUBSTITUTED PYRIMIDINECARBOXYLIC ACID COMPOUND, PREPARATION METHOD THEREFOR, HERBICIDAL COMPOSITION AND APPLICATION THEREOF” (QINGDAO KINGAGROOT CHEMICAL COMPOUND CO., LTD., priority 2023, published 2026).
# Assays:
# Assay type in all cases: in vivo
# Euphorbia helioscopia = assay: Activity assay of compositions, post-emergence spray of stems and leaves; conditions: 21 days
# Excerpt: The required active ingredient B was purchased from a reagent company or a technical material manufacturer or synthesized by a conventional method. The active ingredient A was Compound 74 in Table 1. The technical materials were all dissolved with acetone solvents and diluted with aqueous solution of 0.1% Tween® 80 emulsifier, which should be used immediately after dilution.
# (§1) Weeds were cultivated by a pot culture method. […] Weed seeds with plump and uniform grains were selected, soaked in lukewarm water at 25° C. for 6 hours, and accelerated to germinate in a 28° C. biochemical incubator (in darkness). The weed seeds that had just germinated were evenly placed on the surface of the soil and then covered with 0.5-1 cm soil according to the sizes of seeds.
# The weeds were cultured in a controllable sunlight greenhouse at 20-30° C., in natural light, and with relative humidity of 57%-72%. The soil was loam with an organic matter content of 1.63%, a pH value of 7.1, alkali-hydrolyzable nitrogen of 84.3 mg/kg, rapidly available phosphorus of 38.5 mg/kg, and rapidly available potassium of 82.1 mg/kg.
# (§2) Each treatment was repeated 4 times for 3 pots. Each pot was seeded with 20 weed seeds.
# (§3) The drugs were applied once in total in the experiment. When at the stage of 1.5-2 leaves, the weeds were thinned out to maintain 10 strains per pot. Thirty strains were kept in each treatment and then continued to be cultured until the Erigeron canadensis reached 10 cm tall and other weeds in their 3-4 leaf stage for further treatment.
# (§4) The well-cultured test materials were evenly placed on a 0.5 m^2 platform and foliage-sprayed by the 3WP-2000-type walking spray tower at a dosage of […] and a spray pressure of 0.3 MPa. After all the drug solution was sprayed, the air valve was closed. And 30 seconds later, the door of the spray tower was opened, and the nutritional bowl was taken out. Next, the air valve was opened, and the spray tube was cleaned by spraying 50 ml of water. The test materials were transferred to and routinely cultured in a greenhouse after the treatment.
# (§5) A method for investigating absolute numbers was employed. The whole seedlings of the survival weeds were cut along the soil surface with a blade, and the fresh weight of the weeds was weighed by an analytical balance. For dead weeds, the fresh weight thereof was considered zero.
# (§6) The investigation was performed 21 days after the treatment for once in total.
# The theoretical fresh weight inhibition rate of a mixed combination of each treatment was calculated by the Gowing method (E0=X+Y−X*Y/100). Then compared with the measured inhibition rate (E), the type of the combined action of the combination of the two on weeds was evaluated, which was a synergistic effect when E−E0>10; an antagonistic effect when E−E0<−10%; an additional effect when −10≤E−E0≤[…]. An optimal ratio was determined according to factors such as the actual control effects, characteristics of herbicides, balance of the formulation, etc. In the formula, X represents the fresh weight inhibition rate of the active ingredient A in a dosage of P; Y represents the fresh weight inhibition rate of the active ingredient B in a dosage of Q. The statistical results are shown in Table 5 below.
# Veronica [1] = assay: as above; conditions: 21 days
# Experimental: The required active ingredient B was purchased from a reagent company or a technical material manufacturer or synthesized by a conventional method. […] The technical materials were all dissolved with acetone solvents and diluted with aqueous solution of 0.1% Tween® 80 emulsifier, which should be used immediately after dilution.
# as §1, §2, §3, §4, §5, §6
# The theoretical fresh weight inhibition rate of a mixed combination of each treatment was calculated by the Gowing method (E0=X+Y−X*Y/100). […] An optimal ratio was determined according to factors such as the actual control effects, characteristics of herbicides, balance of the formulation, etc. In the formula, X represents the fresh weight inhibition rate of the active ingredient A in a dosage of P; Y represents the fresh weight inhibition rate of the active ingredient B in a dosage of Q. The statistical results are shown in Table 5 below.
# Veronica [2] = assay: Post-emergence test on weeds; set-up: key: 0 = no effect, 9 = completely dead (levels by growth control rate); conditions: 30 g a.i./ha, 3 weeks after application
# Excerpt: (§7) The criteria for activity levels of plant damage (i.e., growth control rate) are as follows: • Level 9: completely dead; • Level 8: growth control rate is greater than or equal to 90% and less than 100%; • Level 7: growth control rate is greater than or equal to 80% and less than 90%; • Level 6: growth control rate is greater than or equal to 70% and less than 80%; • Level 5: growth control rate is greater than or equal to 50% and less than 70%; • Level 4: growth control rate is greater than or equal to 30% and less than 50%; • Level 3: growth control rate is greater than or equal to 20% and less than 30%; • Level 2: growth control rate is greater than or equal to 10% and less than 20%; • Level 1: growth control rate is less than 10%; • Level 0: no effect.
# (§8) The above growth control rates are fresh weight control rates.
# Monocotyledonous and dicotyledonous weed seeds (Descurainia sophia, Capsella bursa-pastoris, Abutilon theophrasti, Galium spurium, Stellaria media, Lithospermum arvense, Rorippa indica, Alopecurus aequalis, Alopecurus japonicus, Eleusine indica, Beckmannia syzigachne, Sclerochloa dura, Erigeron canadensis, Phleum paniculatum, Veronica, Bromus japonicus, Aegilops tauschii, Phalaris arundinacea, Amaranthus retroflexus, Chenopodium, Commelina communis, Cichorium endivia, Convolvulus arvensis, Cirsium arvense, Solanum nigrum, Acalypha australis, Digitaria sanguinalis, Echinochloa crusgalli, Setaria viridis, Setaria pumila, Leptochloa chinensis, Monochoria vaginalis, Sagittaria trifolia, Schoenoplectiella juncoides, Cyperus rotundus, Cyperus iria, Cyperus difformis, Fimbristylis, Portulaca oleracea, Xanthium sibiricum, Ipomoea nil, Eschenbachia japonica, etc.) and major crop seeds (wheat, maize, paddy rice, soybean, cotton, oilseed rape, millet, sorghum, potato, sesame, castor plant, Chinese cabbage, radish, etc.) were placed in plastic pots filled with soil and then covered with 0.5-2 cm of soil to allow them to grow in a favorable greenhouse environment. Two weeks after sowing, the test plants were treated at the stage of 2-3 leaves. The test compounds of the present invention were individually dissolved with acetone, then added with Tween® 80, with 1.5 L/ha of methyl oleate emulsifiable concentrate as a synergist, diluted into solution of a certain concentration using a certain amount of water, and sprayed to plants using a spray tower. After drug application, the experimental results on weeds were collected after 3 weeks of cultivation in a greenhouse. The compounds were applied at 120, 60, 30, and 15 g a.i./ha in triplicate, and the results were averaged.
# Monochoria vaginalis = assay: Control effect evaluation on weeds in paddy fields; conditions: 30 g a.i./ha, paddy pot, 14th day after treatment, seeds resistant to pyrazosulfuron-ethyl
# Excerpt: as §7, §8
# (§9) After paddy field soil was loaded into a 1/1,000,000 ha pot, the seeds of Monochoria vaginalis, Pontederia korsakowii and Bidens tripartita were sowed and gently covered with soil, then left to stand in a greenhouse with water storage of 0.5-1 cm deep. The tuber of Sagittaria trifolia was planted on the next day or 2 days later. The water storage was kept at a depth of 3-4 cm thereafter. When the Monochoria vaginalis, Pontederia korsakowii and Bidens tripartita reached their 0.5-leaf stages and the Sagittaria trifolia reached the primary leaf stage, WP or SC aqueous dilutions of the compounds of the present invention formulated according to customary formulation methods were homogeneously dripped for treatment to the specified effective amount using pipettes.
# (§10) The effects were evaluated according to the above-mentioned criteria for activity levels.
# Bidens tripartita = assay: Control effect evaluation on weeds in paddy fields; conditions: 30 g a.i./ha, paddy pot, 14th day after treatment, seeds resistant to pyrazosulfuron-ethyl
# Excerpt: as §7, §8, §9, §10
# Pontederia korsakowii = assay: Control effect evaluation on weeds in paddy fields; conditions: 30 g a.i./ha, paddy pot, 14th day after treatment, seeds resistant to pyrazosulfuron-ethyl
# Excerpt: as §7, §8, §9, §10
compound,measurement,setting,value
CCC[S@@+]([O-])c1c(C(F)(F)F)ccc(C(=O)Nc2nnc(C)o2)c1F,Control effect of B applied alone in a corresponding dose (%),Euphorbia helioscopia; B 15 g a.i./ha,34.3%
same,Control effect of B applied alone in a corresponding dose (%),Euphorbia helioscopia; B 30 g a.i./ha,55.4%
CC1(C)CON(Cc2ccc(Cl)cc2Br)C1=O,Control effect of B applied alone in a corresponding dose (%),Euphorbia helioscopia; B 60 g a.i./ha,25.7%
same,Control effect of B applied alone in a corresponding dose (%),Euphorbia helioscopia; B 120 g a.i./ha,44.6%
"Nc1cc(Cl)nc(C(=O)O)c1Cl [Aminopyralid, aminopyralid]",Control effect of B applied alone in a corresponding dose (%),Veronica [1]; B 30 g a.i./ha,18.0%
same,Control effect of B applied alone in a corresponding dose (%),Veronica [1]; B 60 g a.i./ha,39.7%
"CCOC(=O)Cn1c(=O)sc2cccc(Cl)c21 [Benazolinethyl, benazolin-ethyl]",Control effect of B applied alone in a corresponding dose (%),Veronica [1]; B 75 g a.i./ha,24.0%
same,Control effect of B applied alone in a corresponding dose (%),Veronica [1]; B 150 g a.i./ha,35.2%
"Cc1nn(C)cc1C(=O)Oc1c(C(=O)c2ccc(C(F)(F)F)cc2S(C)(=O)=O)c(C)nn1C [Bipyrazone, bipyrazone]",Control effect of B applied alone in a corresponding dose (%),Euphorbia helioscopia; B 7.5 g a.i./ha,37.1%
same,Control effect of B applied alone in a corresponding dose (%),Euphorbia helioscopia; B 15 g a.i./ha,55.8%
"O=C(O)c1nc(Cl)ccc1Cl [Clopyralid, clopyralid]",Control effect of B applied alone in a corresponding dose (%),Veronica [1]; B 45 g a.i./ha,12.4%
same,Control effect of B applied alone in a corresponding dose (%),Veronica [1]; B 90 g a.i./ha,33.3%
COCCOC(=O)c1nc(-c2ccc(Br)c(OC)c2F)nc(N)c1OC [Compound 212],"activity level of plant damage (growth control rate), Veronica",Veronica [2],9
COc1c(N)nc(-c2ccc(Br)c(OC)c2F)nc1C(=O)OCCSC [Compound 214],"activity level of plant damage (growth control rate), Veronica",Veronica [2],9
COc1c(N)nc(-c2ccc(Br)c(OC)c2F)nc1C(=O)OCC1CCCO1 (stereo not drawn) [Compound 218],"activity level of plant damage (growth control rate), Veronica",Veronica [2],9
COc1c(N)nc(-c2ccc(Br)c(OC)c2F)nc1C(=O)OCc1ccccc1 [Compound 219],"activity level of plant damage (growth control rate), Veronica",Veronica [2],9
CCSC(=O)c1nc(-c2ccc(Br)c(OC)c2F)nc(N)c1OC [Compound 222],"activity level of plant damage (growth control rate), Veronica",Veronica [2],9
COC(=O)c1nc(-c2ccc(C(F)(F)F)c(OC(F)F)c2F)nc(N)c1OC [Compound 247],"activity level of plant damage (growth control rate), Veronica",Veronica [2],9
"Cn1[nH]c(C2CC2)c(C(=O)c2ccc(C(F)(F)F)c(N3CCCCC3=O)c2Cl)c1=O [Cypyrafluone, cypyrafluone]",Control effect of B applied alone in a corresponding dose (%),Euphorbia helioscopia; B 15 g a.i./ha,34.7%
same,Control effect of B applied alone in a corresponding dose (%),Euphorbia helioscopia; B 30 g a.i./ha,55.2%
"CCn1ncc(C(=O)c2ccc(S(C)(=O)=O)c(COCC(F)(F)F)c2Cl)c1OC(=O)c1cn(C)nc1C [Fenpyrazone, fenpyrazone]",Control effect of B applied alone in a corresponding dose (%),Euphorbia helioscopia; B 15 g a.i./ha,34.3%
same,Control effect of B applied alone in a corresponding dose (%),Euphorbia helioscopia; B 30 g a.i./ha,60.0%
"COc1ncc(F)c2nc(S(=O)(=O)Nc3c(F)cccc3F)nn12 [Florasulam, florasulam]",Control effect of B applied alone in a corresponding dose (%),Veronica [1]; B 3 g a.i./ha,15.7%
same,Control effect of B applied alone in a corresponding dose (%),Veronica [1]; B 6 g a.i./ha,28.1%
"COc1c(Cl)ccc(-c2nc(C(=O)OCc3ccccc3)c(Cl)c(N)c2F)c1F [Florpyrauxifenbenzyl, florpyrauxifen-benzyl]",Control effect of B applied alone in a corresponding dose (%),Veronica [1]; B 3 g a.i./ha,20.1%
same,Control effect of B applied alone in a corresponding dose (%),Veronica [1]; B 6 g a.i./ha,45.8%
"CCCCCCC(C)OC(=O)COc1nc(F)c(Cl)c(N)c1Cl (stereo not drawn) [Fluroxypyrmeptyl, fluroxypyr-meptyl]",Control effect of B applied alone in a corresponding dose (%),Veronica [1]; B 60 g a.i./ha,20.3%
same,Control effect of B applied alone in a corresponding dose (%),Veronica [1]; B 120 g a.i./ha,40.6%
"COC(=O)c1nc(-c2ccc(Cl)c(OC)c2F)cc(N)c1Cl [Halauxifenmethyl, halauxifen-methyl]",Control effect of B applied alone in a corresponding dose (%),Veronica [1]; B 1.5 g a.i./ha,22.8%
same,Control effect of B applied alone in a corresponding dose (%),Veronica [1]; B 3 g a.i./ha,43.1%
Cc1cc(Cl)ccc1OCC(=O)OCCCCCC(C)C [MCPA-isooctyl],Control effect of B applied alone in a corresponding dose (%),Veronica [1]; B 150 g a.i./ha,23.5%
same,Control effect of B applied alone in a corresponding dose (%),Veronica [1]; B 300 g a.i./ha,40.8%
"Nc1c(Cl)c(Cl)nc(C(=O)O)c1Cl [Picloram, picloram]",Control effect of B applied alone in a corresponding dose (%),Veronica [1]; B 15 g a.i./ha,15.7%
same,Control effect of B applied alone in a corresponding dose (%),Veronica [1]; B 30 g a.i./ha,30.8%
"Cc1cc(C)n(Cc2c(S(C)(=O)=O)ccc(C(=O)c3c(C)nn(C)c3OC(=O)c3cn(C)nc3C)c2Cl)n1 [Tripyrasulfone, tripyrasulfone]",Control effect of B applied alone in a corresponding dose (%),Euphorbia helioscopia; B 15 g a.i./ha,20.0%
same,Control effect of B applied alone in a corresponding dose (%),Euphorbia helioscopia; B 30 g a.i./ha,36.9%
"CCOC(=O)c1cnn(C)c1S(=O)(=O)NC(=O)Nc1nc(OC)cc(OC)n1 [pyrazosulfuron-ethyl, reference compound]","activity level, Monochoria vaginalis",Monochoria vaginalis,1 (Level 1: growth control rate is less than 10%)
same,"activity level, Bidens tripartita",Bidens tripartita,4 (Level 4: growth control rate is greater than or equal to 30% and less than 50%)
same,"activity level, Pontederia korsakowii",Pontederia korsakowii,2 (Level 2: growth control rate is greater than or equal to 10% and less than 20%)
